According to patent US9056140B2, “Pharmaceutical compound” (priority 2007, dated 2015):

Experiments:
[1] = tested on: HCC-1143 cells (ER-negative breast cancer cell line); test: LDH release assay, cell survival of HCC-1143 monolayers; assay type: cell-based, human; settings: FIG. 2; raloxifene 1000 nM
Experimental: (§1) Cell survival (%) for each cell line is calculated according to a standard lactate dehydrogenase (LDH) release assay, where […] (0% survival) corresponds to cells treated with 50 μg/ml of Mitomycin C and […] (100%) survival corresponds to cells treated only with complete medium.
The cell line was maintained in RPMI-1640 (Sigma) supplemented with 2 mM L-Gln (Sigma), 10 mM HEPES (Sigma), 1 mM Na-Pyr (Sigma), 100 IU Penicillin, 100 μg/ml Streptomycin (Sigma) and, as complete medium, 10% FCS (Sigma).
Cultures of MCF-7, HCC-1143 and OVCAR-3 were harvested at approximately 80% confluency by trypsinisation and after washing once in serum free medium, used to seed Flat bottom 96-well plates (Nunc) with 5×10^3 cells per well in 200 μl of complete medium.
Following 18 hours incubation at 37° C., the test compounds were removed and 200 μl/well of complete medium added to each well. […]
(§2) The detection reagent from the CytoTox 96® Non-Radioactive Cytotoxicity Assay kit (Promega) was prepared as per manufacturer's instruction and 50 μl/well of detection reagent was added to all wells. After 30 minutes incubation in the dark at room temperature, the reaction was stopped by adding 50 μl/well of Stop solution to all wells and the absorbance of each well at 490 nm was established.

[2] = cited from earlier work
MCF-7 tumors = test: In vivo anti-tumor activity, MCF-7 tumors in nude female mice; settings: i.v. retro-orbital, days 36 and 43
Experimental: Animals received intravenous treatment via the retro-orbital route on days 36 and 43 post challenge.
Thirty (30) nude female mice (nu/nu), 6-8 weeks old, were challenged subcutaneously with 2×10^7 MCF-7 cells delivered in combination with Matrigel (Becton Dickinson) (200 μl total volume). Weight loss and tumor growth (calculated by taking two perpendicular measurements and applying the formula [Π*((min measurement)/2)^2*(maximum measurement)]) were monitored daily until the end of the study.
Statistical differences were calculated using non-parametric Mann-Whitney assays and considered significant if p<0.05.
Control animals received either PBS or the same doses of raloxine via the same route.
Due to the natural susceptibility of MCF-7 cells to estrogen production, daily tumor volume variation in the nude mice model used follows sinusoidal pattern with a period of approximately 4/5 days (see FIG. 3). The duration of this period correlates with the duration of the oestrus cycle in mice (i.e. 4/5 days). As a result, and in order to facilitate experimental analysis, FIG. 3 represents tumor volume variations for each experimental group both as daily changes and as moving averages (i.e. a trend line) for overlapping 5 day periods (i.e. overlap is 4 days per point).

[3] = tested on: MCF-7 cells (ER-positive breast cancer cell line); test: LDH release assay, cell survival of MCF-7 monolayers; assay type: cell-based, human; settings: FIG. 2; saporin 500 nM, raloxifene 1000 nM, alone or as admixture
Experimental: as §1
The MCF-7 cell line (ECACC, catalogue no. 86012803) was isolated from a breast adenocarcinoma in a person and it expresses the estrogen receptor. The cell line was maintained in Minimum Essential Medium (Sigma) supplemented with 2 mM L-Gln (Sigma), 1% Non Essential amino acids (Sigma), 100 IU Penicillin, 100 μg/ml Streptomycin (Sigma) and, as complete medium, 10% Foetal Calf Serum (FCS) (Sigma).
(§3) Cultures of MCF-7, HCC-1143 and OVCAR-3 were harvested at approximately 80% confluency by trypsinisation and after washing once in serum free medium, used to seed Flat bottom 96-well plates (Nunc) with 5×10^3 cells per well in 200 μl of complete medium. […]
as §2

[4] = tested on: OVCAR-3 cells (ovarian ER positive cell line); test: LDH release assay, cell survival of OVCAR-3 monolayers; assay type: cell-based, human; settings: FIG. 2; raloxifene 1000 nM
Experimental: as §1
Finally, the NIH:OVCAR-3 cells (ATTC, catalogue no. HTB-161) was isolated from an ovary adenocarcinoma in a person and it expresses the estrogen receptor. The cell line was maintained in RPMI-1640 (Sigma) supplemented with 2 mM L-Gln (Sigma), 10 mM HEPES (Sigma), 1 mM Na-Pyr (Sigma), 0.01 mg/ml Bovine Insulin (Sigma), 100 IU Penicillin, 100 μg/ml Streptomycin (Sigma) and, as complete medium, 20% FCS (Sigma).
as §3, §2

[5] = patients taking raloxifene daily

O=C(c1ccc(OCCN2CCCCC2)cc1)c1c(-c2ccc(O)cc2)sc2cc(O)ccc12 [Raloxifene]
lethal effect on HCC-1143 cells [1]: not against
reducing the incidence of estrogen receptor positive breast cancer ([2]; clinical trial, vs tamoxifen): as effective as tamoxifen
fewer blood clots than women taking tamoxifen daily [2, 5]: 29%
fewer uterine cancers than women taking tamoxifen daily [2, 5]: 36%
tumor growth compared to PBS control group (MCF-7 tumors; peak blood concentration 0.1 nM conjugate or 0.1 ng/ml raloxifene): did not result in any changes
tumor growth compared to PBS control group (MCF-7 tumors; peak blood concentration 0.2 nM conjugate or 0.2 ng/ml raloxifene): did not result in any changes
tumor volume / tumor growth (MCF-7 tumors; peak blood concentration 0.4 nM conjugate or 0.4 ng/ml raloxifene, vs PBS): maintenance or slight reduction of tumor size over time
lethal effect on MCF-7 cells [3]: selective significant (p<0.05) effect
lethal effect on OVCAR-3 cells [4]: not against

saporin
lethal effect on MCF-7 cells [3]: no significant (p>0.05) lethal effect
